Experimental data reported in ChEMBL document CHEMBL6071142, “Isoalantolactone/hydroxamic acid hybrids as potent dual STAT3/HDAC inhibitors and self-assembled nanoparticles for cancer therapy” (Eur J Med Chem, 2024).
Activity calls are given as the source filed them. The rule behind the calls is not given here.

How the values were obtained:
[1] = biological target: Histone deacetylase 1 (Homo sapiens, UniProt Q13547); test: Inhibition of recombinant human HDAC1 using Boc-Lys (acetyl)-AMC as substrate preincubated with compound for 1 hr followed by substrate addition and measured after 30 mins by microplate reader assay
[2] = biological target: Histone deacetylase 4 (Homo sapiens, UniProt P56524); test: Inhibition of recombinant human HDAC4 using Boc-Lys (trifluroacetyl)-AMC as substrate preincubated with compound for 1 hr followed by substrate addition and measured after 30 mins by microplate reader assay
[3] = biological target: Histone deacetylase 7 (Homo sapiens, UniProt Q8WUI4); test: Inhibition of recombinant human HDAC7 using Boc-Lys (trifluroacetyl)-AMC as substrate preincubated with compound for 1 hr followed by substrate addition and measured after 30 mins by microplate reader assay
[4] = biological target: Polyamine deacetylase HDAC10 (Homo sapiens, UniProt Q969S8); test: Inhibition of recombinant human HDAC10 using Boc-Lys (trifluroacetyl)-AMC as substrate preincubated with compound for 1 hr followed by substrate addition and measured after 30 mins by microplate reader assay
[5] = biological target: Histone deacetylase 11 (Homo sapiens, UniProt Q96DB2); test: Inhibition of recombinant human HDAC11 using Boc-Lys (trifluroacetyl)-AMC as substrate preincubated with compound for 1 hr followed by substrate addition and measured after 30 mins by microplate reader assay
[6] = biological target: Signal transducer and activator of transcription 4 (Homo sapiens, UniProt Q14765); test: Binding affinity to STAT4 (unknown origin) assessed as dissociation constant by SPR assay
[7] = biological target: Signal transducer and activator of transcription 5B (Homo sapiens, UniProt P51692); test: Binding affinity to STAT5B (unknown origin) assessed as dissociation constant by SPR assay
[8] = tested on: A549; test: cells; format: functional, cell-based; conditions: Homo sapiens, A549, 72 h
Description: Antiproliferative activity against human A549 cells assessed as inhibition of cell proliferation incubated for 72 hrs by CCK-8 assay

[9] = tested on: HepG2; test: Antiproliferative activity against human HepG2 cells assessed as inhibition of cell proliferation incubated for 72 hrs by CCK-8 assay; format: functional, cell-based; conditions: HepG2, 72 h
[10] = biological target: T1, Signal transducer and activator of transcription 3 (Homo sapiens, UniProt P40763); test: Inhibition of STAT3 phosphorylation in human A549 cells at 0.1 to 8 uM incubated for 12 hrs by Western blot analysis; format: cell-based; conditions: dose 0.1-8 µM
[11] = biological target: T1, Signal transducer and activator of transcription 3; test: Inhibition of STAT3 (unknown origin) in human A549 cells incubated for 4 hrs by Cellular thermal shift assay; format: cell-based
[12] = tested on: A549; test: Induction of apoptosis in human A549 cells assessed as viable cells at 2 uM incubated for 24 hrs by Annexin V-FITC/PI staining based flow cytometric analysis (reference value: 95.08%); format: functional; conditions: Homo sapiens, A549, read-out: Activity
[13] = tested on: A549; test: Induction of apoptosis in human A549 cells assessed as viable cells at 4 uM incubated for 24 hrs by Annexin V-FITC/PI staining based flow cytometric analysis (reference value: 95.08%); format: functional; conditions: read-out: Activity
[14] = tested on: A549; test: Induction of apoptosis in human A549 cells assessed as late apoptotic cells at 4 uM incubated for 24 hrs by Annexin V-FITC/PI staining based flow cytometric analysis (reference value: 2.18%); format: functional
[15] = tested on: A549; test: Induction of apoptosis in human A549 cells assessed as necrotic cells at 4 uM incubated for 24 hrs by Annexin V-FITC/PI staining based flow cytometric analysis (reference value: 1.20%); format: functional
[16] = tested on: A549; test: In vivo antitumor activity against human A549 cells xenografted in female BALB/c nu/nu mouse assessed as tumor volume at 5 mg/kg, iv administered every 3 days and measured on 18 day relative to control; format: functional; conditions: time 3 day
[17] = tested on: A549; test: In vivo antitumor activity against human A549 cells xenografted in female BALB/c nu/nu mouse assessed as Ac-tubulin at 5 mg/kg, iv administered every 3 days for 9 days by Western blotting analysis; format: functional, organism-based; conditions: time 3.0 day
[18] = Toxicity in female BALB/c nu/nu mouse xenografted with human A549 cells assessed as effect on body weight at 2.5 mg/kg, iv and measured regularly; format: organism-based; conditions: in vivo
[19] = Toxicity in female BALB/c nu/nu mouse xenografted with human A549 cells assessed as effect on lung at 2.5 mg/kg, iv by H and E staining based analysis; format: organism-based; conditions: in vivo
[20] = Toxicity in female BALB/c nu/nu mouse xenografted with human A549 cells assessed as effect on lung at 5 mg/kg, iv by H and E staining based analysis; format: organism-based; conditions: in vivo
[21] = Toxicity in female BALB/c nu/nu mouse xenografted with human A549 cells assessed as effect on spleen at 2.5 mg/kg, iv by H and E staining based analysis; format: organism-based; conditions: in vivo
[22] = Toxicity in female BALB/c nu/nu mouse xenografted with human A549 cells assessed as effect on spleen at 5 mg/kg, iv by H and E staining based analysis; format: organism-based; conditions: in vivo
[23] = tested on: HCT-116; test: Anticancer activity against human HCT-116 cells assessed as cell viability incubated for 72 hrs using self assembled nanoparticle as source of compound by CCK-8 assay; format: functional, cell-based; conditions: HCT-116, 72 h
[24] = tested on: HeLa; test: Anticancer activity against human HeLa cells assessed as cell viability incubated for 72 hrs using self assembled nanoparticle as source of compound by CCK-8 assay; format: functional, cell-based
[25] = Drug uptake in human A549 cells assessed as increase in red fluorescence incubated for 4 hrs using chlorine e6 loaded self assembled nanoparticle as source of compound by fluorescence based flow cytometric analysis; format: ADME, cell-based; conditions: a549, 4 h
[26] = Biodistribution in liver of nude mouse xenografted with A549 cells at 5 mg/kg, iv using chlorine e6 loaded self-assembled nanoparticle as source of compound incubated for 24 hrs by ex-vivo fluorescence based LC-MS/MS analysis; format: ADME, organism-based
[27] = tested on: HCT-116; test: cells; conditions: Homo sapiens, HCT-116, 72 h
Description: Antiproliferative activity against human HCT-116 cells assessed as inhibition of cell proliferation incubated for 72 hrs by CCK-8 assay

[28] = tested on: A549; test: Induction of apoptosis in human A549 cells assessed as decrease in BCL-2 protein level at 6 uM incubated for 12 hrs by Western blot analysis
[29] = tested on: A549; test: In vivo antitumor activity against human A549 cells xenografted in female BALB/c nu/nu mouse assessed as Ac-Histone H3 at 5 mg/kg, iv administered every 3 days for 18 days by Western blotting analysis; conditions: time 3.0 day
[30] = tested on: A549; test: In vivo antitumor activity against human A549 cells xenografted in female BALB/c nu/nu mouse assessed as reduction in tumor weight at 5 mg/kg, iv administered every 3 days for 18 days using self assembled nanoparticle as source of compound and measured every 3 days; conditions: time 3.0 day

T1 sequence (P40763 whole entry): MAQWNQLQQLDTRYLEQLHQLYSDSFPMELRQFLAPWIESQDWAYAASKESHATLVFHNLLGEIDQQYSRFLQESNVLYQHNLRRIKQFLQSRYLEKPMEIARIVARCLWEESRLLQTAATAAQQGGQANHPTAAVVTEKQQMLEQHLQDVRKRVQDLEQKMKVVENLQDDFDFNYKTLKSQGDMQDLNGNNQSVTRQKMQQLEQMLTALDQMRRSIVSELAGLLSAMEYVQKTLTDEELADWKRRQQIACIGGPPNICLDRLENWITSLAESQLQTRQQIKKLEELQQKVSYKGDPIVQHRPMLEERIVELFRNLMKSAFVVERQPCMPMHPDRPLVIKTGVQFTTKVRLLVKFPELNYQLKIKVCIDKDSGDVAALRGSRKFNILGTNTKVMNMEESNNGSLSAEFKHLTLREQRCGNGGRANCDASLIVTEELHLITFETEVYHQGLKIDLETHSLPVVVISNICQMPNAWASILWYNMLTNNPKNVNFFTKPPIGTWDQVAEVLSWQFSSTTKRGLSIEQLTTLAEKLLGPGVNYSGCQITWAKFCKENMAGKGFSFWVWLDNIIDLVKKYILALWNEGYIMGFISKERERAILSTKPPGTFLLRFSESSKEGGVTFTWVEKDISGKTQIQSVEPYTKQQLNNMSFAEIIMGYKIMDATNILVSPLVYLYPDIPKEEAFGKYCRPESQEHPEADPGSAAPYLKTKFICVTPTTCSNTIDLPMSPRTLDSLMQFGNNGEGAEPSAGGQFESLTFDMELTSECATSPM
Chain of Histone deacetylase 11 (Q96DB2 whole entry): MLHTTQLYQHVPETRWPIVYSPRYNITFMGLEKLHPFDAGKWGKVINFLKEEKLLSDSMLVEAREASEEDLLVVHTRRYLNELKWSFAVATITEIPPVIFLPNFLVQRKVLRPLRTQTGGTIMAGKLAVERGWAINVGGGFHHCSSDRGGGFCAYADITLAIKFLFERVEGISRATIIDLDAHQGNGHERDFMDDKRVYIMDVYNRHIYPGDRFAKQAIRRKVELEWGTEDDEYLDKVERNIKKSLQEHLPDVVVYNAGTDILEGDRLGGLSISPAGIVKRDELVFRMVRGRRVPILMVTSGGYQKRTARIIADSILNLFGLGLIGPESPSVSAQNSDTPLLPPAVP
Chain of Histone deacetylase 4 (P56524 whole entry): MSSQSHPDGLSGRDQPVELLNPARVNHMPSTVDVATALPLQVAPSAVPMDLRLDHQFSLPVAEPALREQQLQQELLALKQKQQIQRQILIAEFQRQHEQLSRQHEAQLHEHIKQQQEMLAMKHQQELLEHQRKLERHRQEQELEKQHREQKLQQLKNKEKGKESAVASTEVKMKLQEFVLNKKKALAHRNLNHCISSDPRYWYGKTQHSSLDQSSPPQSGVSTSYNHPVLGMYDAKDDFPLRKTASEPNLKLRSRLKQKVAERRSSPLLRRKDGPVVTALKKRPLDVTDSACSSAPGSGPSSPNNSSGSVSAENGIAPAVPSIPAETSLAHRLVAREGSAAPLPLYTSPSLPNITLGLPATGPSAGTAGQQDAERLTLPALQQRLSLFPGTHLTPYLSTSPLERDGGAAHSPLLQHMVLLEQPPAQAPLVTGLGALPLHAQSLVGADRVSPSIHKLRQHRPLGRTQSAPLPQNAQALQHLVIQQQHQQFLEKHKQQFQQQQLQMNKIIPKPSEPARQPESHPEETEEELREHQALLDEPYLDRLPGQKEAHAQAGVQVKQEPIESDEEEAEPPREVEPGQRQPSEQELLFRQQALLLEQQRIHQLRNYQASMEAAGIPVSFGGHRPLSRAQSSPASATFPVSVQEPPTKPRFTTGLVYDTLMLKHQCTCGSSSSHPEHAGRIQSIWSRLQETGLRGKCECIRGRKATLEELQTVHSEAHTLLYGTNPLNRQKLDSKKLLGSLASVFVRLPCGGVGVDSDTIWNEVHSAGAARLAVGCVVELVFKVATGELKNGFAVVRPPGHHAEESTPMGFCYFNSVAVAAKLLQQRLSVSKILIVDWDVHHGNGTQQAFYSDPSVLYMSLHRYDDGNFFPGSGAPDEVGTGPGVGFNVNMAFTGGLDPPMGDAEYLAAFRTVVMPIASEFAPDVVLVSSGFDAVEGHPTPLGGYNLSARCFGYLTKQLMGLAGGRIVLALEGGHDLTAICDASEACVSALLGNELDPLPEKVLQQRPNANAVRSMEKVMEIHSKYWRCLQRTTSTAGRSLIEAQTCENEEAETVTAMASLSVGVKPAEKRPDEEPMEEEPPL
Chain of Histone deacetylase 7 (Q8WUI4 whole entry): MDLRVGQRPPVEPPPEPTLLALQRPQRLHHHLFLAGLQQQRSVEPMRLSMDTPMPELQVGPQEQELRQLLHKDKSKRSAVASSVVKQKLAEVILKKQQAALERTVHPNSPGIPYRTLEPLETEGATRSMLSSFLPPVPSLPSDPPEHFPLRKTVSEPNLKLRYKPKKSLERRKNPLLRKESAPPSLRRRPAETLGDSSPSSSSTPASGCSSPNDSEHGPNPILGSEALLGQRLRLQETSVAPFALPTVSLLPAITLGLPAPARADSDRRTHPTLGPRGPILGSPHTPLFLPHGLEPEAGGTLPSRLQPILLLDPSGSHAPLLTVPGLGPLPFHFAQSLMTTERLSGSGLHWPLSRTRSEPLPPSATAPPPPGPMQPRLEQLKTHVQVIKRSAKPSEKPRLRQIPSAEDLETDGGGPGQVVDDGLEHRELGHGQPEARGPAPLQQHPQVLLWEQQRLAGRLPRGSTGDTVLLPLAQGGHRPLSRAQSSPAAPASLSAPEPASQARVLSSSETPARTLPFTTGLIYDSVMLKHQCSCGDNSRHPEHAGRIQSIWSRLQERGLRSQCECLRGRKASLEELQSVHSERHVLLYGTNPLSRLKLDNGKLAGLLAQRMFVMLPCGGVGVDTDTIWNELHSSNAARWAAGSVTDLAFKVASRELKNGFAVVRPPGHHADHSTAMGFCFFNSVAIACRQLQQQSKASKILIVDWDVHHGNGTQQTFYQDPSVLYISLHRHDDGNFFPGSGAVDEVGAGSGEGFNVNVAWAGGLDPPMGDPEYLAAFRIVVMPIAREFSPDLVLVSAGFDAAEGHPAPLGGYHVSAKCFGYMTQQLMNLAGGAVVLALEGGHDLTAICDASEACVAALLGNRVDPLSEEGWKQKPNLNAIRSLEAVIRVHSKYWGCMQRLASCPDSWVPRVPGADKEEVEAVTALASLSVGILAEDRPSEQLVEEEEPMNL
Chain of Signal transducer and activator of transcription 4 (Q14765 whole entry): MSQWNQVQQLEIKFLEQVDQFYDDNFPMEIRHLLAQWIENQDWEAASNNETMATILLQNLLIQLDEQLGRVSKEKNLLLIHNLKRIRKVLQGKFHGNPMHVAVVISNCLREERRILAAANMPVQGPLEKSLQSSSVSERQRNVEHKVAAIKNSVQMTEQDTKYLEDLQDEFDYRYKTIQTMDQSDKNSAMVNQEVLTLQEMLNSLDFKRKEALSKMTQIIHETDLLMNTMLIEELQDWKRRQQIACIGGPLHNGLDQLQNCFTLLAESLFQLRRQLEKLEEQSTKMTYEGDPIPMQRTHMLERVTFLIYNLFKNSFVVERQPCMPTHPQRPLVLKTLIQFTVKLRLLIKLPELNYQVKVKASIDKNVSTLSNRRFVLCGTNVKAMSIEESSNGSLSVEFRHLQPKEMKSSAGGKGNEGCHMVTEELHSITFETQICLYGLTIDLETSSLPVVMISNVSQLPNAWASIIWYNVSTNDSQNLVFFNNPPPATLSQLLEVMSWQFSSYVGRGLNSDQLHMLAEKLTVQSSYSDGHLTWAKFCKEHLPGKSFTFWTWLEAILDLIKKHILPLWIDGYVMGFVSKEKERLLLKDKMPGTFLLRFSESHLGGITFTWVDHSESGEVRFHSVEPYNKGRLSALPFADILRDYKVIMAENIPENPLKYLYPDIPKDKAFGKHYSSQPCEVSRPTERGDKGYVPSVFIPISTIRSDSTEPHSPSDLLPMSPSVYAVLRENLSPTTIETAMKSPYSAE
Chain of Histone deacetylase 1 (Q13547 whole entry): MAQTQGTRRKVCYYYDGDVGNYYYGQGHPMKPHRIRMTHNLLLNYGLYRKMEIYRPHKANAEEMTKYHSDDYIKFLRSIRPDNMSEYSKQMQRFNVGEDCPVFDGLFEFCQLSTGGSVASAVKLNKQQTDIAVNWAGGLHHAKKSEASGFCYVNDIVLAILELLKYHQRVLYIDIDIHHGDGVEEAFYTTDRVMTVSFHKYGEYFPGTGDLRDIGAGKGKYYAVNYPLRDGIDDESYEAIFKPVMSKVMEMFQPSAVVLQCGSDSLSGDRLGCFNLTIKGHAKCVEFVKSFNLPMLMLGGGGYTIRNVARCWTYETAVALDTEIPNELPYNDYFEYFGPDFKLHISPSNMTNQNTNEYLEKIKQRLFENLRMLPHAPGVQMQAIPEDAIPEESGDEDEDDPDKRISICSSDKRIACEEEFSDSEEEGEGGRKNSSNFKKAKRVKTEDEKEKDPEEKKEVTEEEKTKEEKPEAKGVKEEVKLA
Chain of Polyamine deacetylase HDAC10 (Q969S8 whole entry): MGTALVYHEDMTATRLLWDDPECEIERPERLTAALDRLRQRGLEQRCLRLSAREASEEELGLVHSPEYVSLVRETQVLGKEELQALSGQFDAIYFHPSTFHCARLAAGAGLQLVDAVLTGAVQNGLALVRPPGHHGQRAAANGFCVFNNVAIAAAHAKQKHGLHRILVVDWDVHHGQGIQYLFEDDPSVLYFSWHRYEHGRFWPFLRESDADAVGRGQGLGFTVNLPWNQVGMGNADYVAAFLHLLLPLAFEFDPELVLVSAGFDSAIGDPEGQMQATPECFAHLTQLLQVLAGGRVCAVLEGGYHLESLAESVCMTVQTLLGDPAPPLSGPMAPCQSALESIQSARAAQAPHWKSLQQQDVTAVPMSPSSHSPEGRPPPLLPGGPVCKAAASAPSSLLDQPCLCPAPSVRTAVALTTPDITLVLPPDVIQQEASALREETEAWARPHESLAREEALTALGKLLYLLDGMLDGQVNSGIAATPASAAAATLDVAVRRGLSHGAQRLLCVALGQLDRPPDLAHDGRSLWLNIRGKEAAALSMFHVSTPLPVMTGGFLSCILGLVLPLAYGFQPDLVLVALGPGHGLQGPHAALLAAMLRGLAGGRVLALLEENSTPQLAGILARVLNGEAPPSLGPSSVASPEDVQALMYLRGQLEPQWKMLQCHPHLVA

IC50 [1]: 62 nM
IC50 [2]: > 10000 nM
IC50 [3]: > 10000 nM
IC50 [4]: 57.4 nM
IC50 [5]: 265 nM
Kd [6]: Not Active
Kd [7]: Not Active
IC50 [8]: 120 nM
IC50 [9]: 260 nM
inhibition [10]: Active
inhibition [11]: Active
IC50 [23]: 23 nM
IC50 [24]: 72 nM
Drug uptake [25]: Active
Drug uptake [26]: Active
IC50 [27]: 40 nM
SMILES: C=C1C(=O)O[C@@H]2C[C@@]3(C)CC[C@@H](OC(=O)[C@H](C)NC(=O)c4ccc(/C=C/C(=O)NO)cc4)C(=C)[C@@H]3C[C@H]12
viability at 2 µM [12]: 82.5%
viability at 4 µM [13]: 56.2%
Activity [14]: 35.53%
Activity [15]: 2.99%
Activity [16]: 47.3%
Activity [17]: Active
Activity [18]: Non-Toxic
Activity [19]: Non-Toxic
Activity [20]: Non-Toxic
Activity [21]: Non-Toxic
Activity [22]: Non-Toxic
Activity [28]: Active
Activity [29]: Active
Activity [30]: Active
